Results: patent US20260115250A1, “METHODS OF TREATING AGE-RELATED MACULAR DEGENERATION” (Character Biosciences, Inc., priority 2022, published 2026)
pKd: −log10 of the molar value. Where two headings read alike, the source gives them in different places. Ends that are not written are not given here. Peptide text beside a SMILES is read from it.

Tests used:
LDLR = LDLR (Homo sapiens, UniProt P01130); assay: LDLR binding (SPR), high surfactant preparation
Experimental: The table shown in FIG. 23 illustrates LDLR binding data (SPR), using a high surfactant preparation. Recombinant LDLR was diluted in 10 mM acetate buffer pH 4.5 and amine coupled to a CM5 chip at 1000 RU. Peptides were diluted to 5 μM in running buffer (HBS-P+, 1 mM CaCl2) and serially diluted 1:3 for 5 total concentrations. Peptides were exposed to immobilized LDLR at a rate of […] for 120 seconds. Between cycles, the chip surface was regenerated with 3 injections of 50 mM NaOH/100 mM EDTA. Multi-Cycle Kinetics was performed on a Biacore Insight Evaluation Software and binding kinetics were analyzed with a 1:1 binding model.

HMC3 cells = assay: HMC3 cholesterol efflux; assay type: cell-based, human; details: HMC3, 20 μM peptide, 4 hours
Experimental: (§1) FIGS. 27A-27B and FIG. 28 illustrate HMC3 cholesterol efflux. Fully confluent 96-well plates of HMC3 cells were treated for 1 hour in serum-free EMEM containing 10 mM methyl-β-cyclodextrin, 100 μM cholesterol, and 25 μM BODIPY cholesterol. Cells were then washed and incubated overnight in serum free EMEM containing 1 μM LXR agonist GW3965, 2 μg/mL ACAT inhibitor, and 0.2% BSA (LXR Agonist treated), or serum-free EMEM containing 2 μg/mL ACAT inhibitor, and 0.2% BSA (Control). Cells were washed and incubated with 20 μM peptides diluted in serum-free Fluorobrite DMEM for 4 hours at 37° C. Media was transferred to a new 96-well plate and fresh serum-free Fluorobrite DMEM was placed on the cells. Media and cellular fluorescence were read on a Promega GloMax at 475 nm excitation, 500-550 emission. Fluorescence values were background corrected from no treatment conditions and percent efflux was calculated by the following equation: % efflux=(Media Fluorescence values)/(Media+Cell Fluorescence values). Data are presented as mean+SD over two runs per peptide.
as §1, with “FIGS. 30A-30J show” for “FIGS. 27A-27B and FIG. 28 illustrate”, “cholesterol efflux titration curves for the indicated peptides.” for “cholesterol efflux.”, “μM” for “μM LXR agonist”, “or serum free” for “or serum-free”, “with 0-100” for “with 20”, “peptides serially” for “peptides”

[1] = key assays (summary statement on homologous variants)
ARPE-19 cells = assay: ARPE-19 cholesterol efflux; assay type: cell-based, human; details: ARPE-19, 20 μM peptide, 4 hours
Experimental: as §1, with “Fully” for “FIGS. 27A-27B and FIG. 28 illustrate HMC3 cholesterol efflux. Fully”, “of ARPE-19” for “of HMC3”, “serum-free DMEM” for “serum-free EMEM”, “in serum-free DMEM” for “in serum free EMEM”, “μM” for “μM LXR agonist”, “or serum free DMEM” for “or serum-free EMEM”

ABCA1 = target: T1, ABCA1 (Homo sapiens, UniProt O95477); assay: membrane ABCA1 stability testing in ARPE-19 cells treated with mCRP; assay type: cell-based; details: ARPE-19, mCRP, 20 μM peptide, 24 hours
T1 construct: endogenous in cells; host or cells: ARPE-19
Experimental: ARPE-19 cells were seeded at 100,000 cells per well on 12-well plates and were allowed to grow to confluence. To prepare monomeric CRP (mCRP), recombinant CRP was prepared in a PBS solution containing 8 M Urea and 10 mM EDTA and incubated at 37° C. for 2 hours prior to desalting with a Zeba spin column (7K MW cutoff). mCRP was prepared to a 2× solution of 20 μg/mL. A 2× solution of 40 μM peptides was prepared in serum-free DMEM and serially diluted 1:2 over 4 concentrations. mCRP and peptides were added 1:1 to cells for 24 hours at 37° C. before isolating membrane protein and measuring membrane ABCA1 levels by western blot. Blots were quantified in ImageJ. Signals were further normalized to the LXR agonist treated group to determine percent (%) ABCA1 remaining. Treatment with LXR agonist increased membrane ABCA1 levels in this assay, but following treatment with mCRP, membrane ABCA1 levels were decreased.
FIGS. 35 and 36 show membrane ABCA1 stability testing using ARPE-19 cells. ARPE-19 cells were seeded at 100,000 cells per well on 12-well plates and were allowed to grow to confluence. To prepare monomeric CRP (mCRP), recombinant CRP was prepared in a PBS solution containing 8 M Urea and 10 mM EDTA and incubated at 37° C. for 2 hours prior to desalting with a Zeba spin column (7K MW cutoff). mCRP was prepared to a 2× solution of 20 μg/mL. A 2× solution of 40 μM peptides was prepared in serum-free DMEM. CRP and peptides were added 1:1 to cells for 24 hours at 37° C. before isolating membrane protein and measuring membrane ABCA1 levels by western blot. Blots were quantified in ImageJ. In FIG. 35, Signals were further normalized to the T-087 treated group to determine percent (%) ABCA1 levels compared to peptide T-087 treated cells. In FIG. 36, Signals were further normalized to the peptide T-101 treated group to determine percent (%) ABCA1 levels compared to peptide T-101 treated cells.

T1 sequence (O95477 whole entry): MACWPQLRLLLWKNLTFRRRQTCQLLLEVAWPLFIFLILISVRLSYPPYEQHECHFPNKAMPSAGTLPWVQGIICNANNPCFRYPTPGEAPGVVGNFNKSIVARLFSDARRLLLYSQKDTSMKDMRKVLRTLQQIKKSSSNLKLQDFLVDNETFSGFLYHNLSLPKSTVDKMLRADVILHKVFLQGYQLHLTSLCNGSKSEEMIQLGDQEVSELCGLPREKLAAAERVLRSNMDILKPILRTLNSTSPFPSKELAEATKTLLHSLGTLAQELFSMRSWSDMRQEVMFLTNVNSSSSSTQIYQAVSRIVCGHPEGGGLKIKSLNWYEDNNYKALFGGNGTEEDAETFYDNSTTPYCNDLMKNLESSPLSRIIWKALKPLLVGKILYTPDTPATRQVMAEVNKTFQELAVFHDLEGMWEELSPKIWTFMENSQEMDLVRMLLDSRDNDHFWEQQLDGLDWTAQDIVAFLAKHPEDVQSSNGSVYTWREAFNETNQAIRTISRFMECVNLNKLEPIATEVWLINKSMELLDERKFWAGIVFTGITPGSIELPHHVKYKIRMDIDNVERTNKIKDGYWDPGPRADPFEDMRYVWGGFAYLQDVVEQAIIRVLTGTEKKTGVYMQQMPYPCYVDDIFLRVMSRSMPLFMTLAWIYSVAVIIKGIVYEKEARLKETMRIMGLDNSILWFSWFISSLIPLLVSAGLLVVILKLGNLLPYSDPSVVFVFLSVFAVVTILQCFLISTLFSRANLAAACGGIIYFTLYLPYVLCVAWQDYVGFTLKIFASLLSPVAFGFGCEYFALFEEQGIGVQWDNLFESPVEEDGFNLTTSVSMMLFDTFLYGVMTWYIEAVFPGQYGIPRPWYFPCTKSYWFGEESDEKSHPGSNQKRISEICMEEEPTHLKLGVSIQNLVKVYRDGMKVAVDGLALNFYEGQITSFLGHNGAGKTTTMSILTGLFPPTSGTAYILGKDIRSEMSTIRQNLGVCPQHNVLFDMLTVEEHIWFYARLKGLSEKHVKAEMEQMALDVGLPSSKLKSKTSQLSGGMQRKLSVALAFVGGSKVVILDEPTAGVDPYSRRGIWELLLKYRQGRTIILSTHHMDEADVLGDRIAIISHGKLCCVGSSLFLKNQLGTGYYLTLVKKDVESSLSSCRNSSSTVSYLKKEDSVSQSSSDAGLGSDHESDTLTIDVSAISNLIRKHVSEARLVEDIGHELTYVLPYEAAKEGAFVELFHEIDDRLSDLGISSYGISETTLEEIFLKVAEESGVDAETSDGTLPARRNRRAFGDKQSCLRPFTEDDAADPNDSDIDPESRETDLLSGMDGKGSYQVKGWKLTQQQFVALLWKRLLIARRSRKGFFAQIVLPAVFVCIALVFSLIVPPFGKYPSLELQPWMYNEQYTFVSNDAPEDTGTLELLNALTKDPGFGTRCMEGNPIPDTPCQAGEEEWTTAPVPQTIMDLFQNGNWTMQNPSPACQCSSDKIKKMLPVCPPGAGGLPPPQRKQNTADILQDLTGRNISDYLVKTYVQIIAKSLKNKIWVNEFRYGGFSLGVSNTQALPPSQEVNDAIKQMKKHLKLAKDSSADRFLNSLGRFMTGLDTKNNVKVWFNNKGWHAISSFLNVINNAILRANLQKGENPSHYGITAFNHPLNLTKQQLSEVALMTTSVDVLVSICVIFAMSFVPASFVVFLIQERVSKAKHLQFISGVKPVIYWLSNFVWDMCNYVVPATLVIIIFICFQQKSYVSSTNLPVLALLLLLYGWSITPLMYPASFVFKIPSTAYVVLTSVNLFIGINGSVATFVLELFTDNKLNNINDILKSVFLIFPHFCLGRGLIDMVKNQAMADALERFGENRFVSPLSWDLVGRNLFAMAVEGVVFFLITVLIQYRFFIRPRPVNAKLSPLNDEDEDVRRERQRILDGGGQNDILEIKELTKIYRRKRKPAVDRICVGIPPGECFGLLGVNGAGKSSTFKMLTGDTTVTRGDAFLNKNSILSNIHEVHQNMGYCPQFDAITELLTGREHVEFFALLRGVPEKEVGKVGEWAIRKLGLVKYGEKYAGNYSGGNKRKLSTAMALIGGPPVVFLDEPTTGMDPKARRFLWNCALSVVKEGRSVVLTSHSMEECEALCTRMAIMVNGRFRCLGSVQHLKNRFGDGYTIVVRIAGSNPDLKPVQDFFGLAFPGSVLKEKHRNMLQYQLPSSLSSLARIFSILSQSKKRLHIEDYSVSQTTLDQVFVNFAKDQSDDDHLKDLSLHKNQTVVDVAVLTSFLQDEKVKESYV
Sequence of LDLR (P01130 22-860): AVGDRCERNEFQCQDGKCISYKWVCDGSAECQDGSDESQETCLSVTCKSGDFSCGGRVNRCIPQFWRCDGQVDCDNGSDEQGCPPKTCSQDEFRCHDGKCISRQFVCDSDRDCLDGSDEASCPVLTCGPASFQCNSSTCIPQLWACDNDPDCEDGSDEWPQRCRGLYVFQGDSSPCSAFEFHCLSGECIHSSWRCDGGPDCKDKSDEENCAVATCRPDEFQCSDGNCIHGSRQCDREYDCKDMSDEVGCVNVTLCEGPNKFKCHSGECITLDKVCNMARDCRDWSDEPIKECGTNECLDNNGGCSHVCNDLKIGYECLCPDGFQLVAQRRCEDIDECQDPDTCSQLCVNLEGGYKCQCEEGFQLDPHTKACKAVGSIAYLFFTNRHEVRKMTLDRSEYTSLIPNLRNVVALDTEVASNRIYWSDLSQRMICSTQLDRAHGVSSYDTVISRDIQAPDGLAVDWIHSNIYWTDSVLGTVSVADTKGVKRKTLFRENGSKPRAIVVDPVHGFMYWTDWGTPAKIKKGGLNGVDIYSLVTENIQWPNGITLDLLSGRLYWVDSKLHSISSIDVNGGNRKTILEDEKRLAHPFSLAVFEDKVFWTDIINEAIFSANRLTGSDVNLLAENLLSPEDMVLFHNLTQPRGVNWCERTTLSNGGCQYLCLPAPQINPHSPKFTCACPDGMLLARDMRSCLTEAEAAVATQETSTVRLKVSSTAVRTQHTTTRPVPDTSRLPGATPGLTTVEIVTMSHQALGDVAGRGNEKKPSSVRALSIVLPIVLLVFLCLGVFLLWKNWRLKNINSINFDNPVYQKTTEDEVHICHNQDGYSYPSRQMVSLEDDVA

Row | Compound | cholesterol efflux following LXR agonist treatment (ARPE-19 cells) | membrane ABCA1 levels compared to peptide T-087 treated cells (ABCA1) | also measured
1 | CSCC[C@H](NC(=O)[C@H](CC(C)C)NC(=O)[C@H](CC(=O)O)NC(=O)[C@H](CCCCN)NC(=O)CNC(=O)[C@H](Cc1ccc(O)cc1)NC(=O)[C@H](CC(=O)O)NC(=O)[C@@H](NC(=O)[C@@H](NC(=O)[C@@H](NC(=O)[C@H](CCC(N)=O)NC(=O)[C@H](Cc1ccccc1)NC(=O)[C@H](Cc1ccc(O)cc1)NC(=O)[C@H](CCC(N)=O)NC(=O)[C@H](CO)NC(=O)[C@@H](NC(=O)[C@H](CC(C)C)NC(=O)[C@H](CO)NC(=O)[C@H](CCCNC(=N)N)NC(=O)[C@H](C)NC(=O)[C@H](CC(C)C)NC(=O)[C@H](CCCNC(=N)N)NC(=O)[C@H](CCCCN)NC(=O)[C@H](CCCNC(=N)N)NC(=O)[C@H](CC(C)C)NC(=O)[C@H](CCCCN)NC(=O)[C@H](CCCNC(=N)N)NC(=O)[C@H](CC(C)C)NC(=O)[C@H](Cc1c[nH]cn1)NC(=O)[C@H](CCCNC(=N)N)NC(=O)[C@H](C)NC(=O)[C@@H](N)CC(C)C)C(C)C)[C@@H](C)O)C(C)C)[C@@H](C)O)C(=O)O [T-066] (H-LARHLRKLRKRLARSLVSQYFQTVTDYGKDLM-OH) |  |  | pKd (LDLR; high surfactant preparation (HBS-P+), 1:1 binding model, read-out: binding KD to LDLR): > 5.00
2 | DAWERFRALFKELADYFRLGQSTEELRVRLASHLRKLRKRLLRDADDLQKRLAVYQA [T-116] |  |  | pKd (LDLR): > 5.00
3 | MEDVRGRLVQYRGEVQAMLGQSTEELRVRLASHLRKLRKRLLRDADDLQKRLAVYQA [T-068] |  |  | pKd (LDLR): > 5.00
4 | T-122: variant of peptide T-101 (RAGADALESALKELKRFIREWT) |  |  | cholesterol efflux in the presence of LXR agonist (HMC3 cells): greater cholesterol efflux; activity in key assays of polypeptides of the SEQ ID NO. 101 family [1]: sustained or improved activity
5 | T-123: variant of peptide T-101 (RSAADALESALKELKRFIREWT) |  |  | cholesterol efflux in the presence of LXR agonist (HMC3 cells): greater cholesterol efflux; activity in key assays of polypeptides of the SEQ ID NO. 101 family [1]: sustained or improved activity
6 | T-129: variant of peptide T-101 (RSGADALEAALKELKRFIREWT) |  |  | cholesterol efflux in the presence of LXR agonist (HMC3 cells): greater cholesterol efflux; activity in key assays of polypeptides of the SEQ ID NO. 101 family [1]: sustained or improved activity
7 | T-136: variant of peptide T-101 (RSGADALESALKELKAFIREWT) |  |  | cholesterol efflux in the presence of LXR agonist (HMC3 cells): greater cholesterol efflux; activity in key assays of polypeptides of the SEQ ID NO. 101 family [1]: sustained or improved activity
8 | T-139: variant of peptide T-101 (RSGADALESALKELKRFIAEWT) |  |  | cholesterol efflux in the presence of LXR agonist (HMC3 cells): greater cholesterol efflux; activity in key assays of polypeptides of the SEQ ID NO. 101 family [1]: sustained or improved activity
9 | T-153: variant of peptide T-087 (DPWERFRALFKELADYFR) | increased cholesterol efflux |  | 
10 | T-154: variant of peptide T-087 (DGWERFRALFKELADYFR) | increased cholesterol efflux |  | 
11 | T-155: variant of peptide T-087 (DAAERFRALFKELADYFR) | increased cholesterol efflux | reduction of membrane ABCA1 levels | 
12 | T-156: variant of peptide T-087 (DAWARFRALFKELADYFR) | increased cholesterol efflux | reduction of membrane ABCA1 levels | 
13 | T-157: variant of peptide T-087 (DAWEAFRALFKELADYFR) | increased cholesterol efflux | reduction of membrane ABCA1 levels | 
14 | T-158: variant of peptide T-087 (DAWERARALFKELADYFR) | increased cholesterol efflux | reduction of membrane ABCA1 levels | 
15 | T-159: variant of peptide T-087 (DAWERFAALFKELADYFR) | increased cholesterol efflux | reduction of membrane ABCA1 levels | 
16 | T-162: variant of peptide T-087 (DAWERFRAAFKELADYFR) | increased cholesterol efflux | reduction of membrane ABCA1 levels | 
17 | T-164: variant of peptide T-087 (DAWERFRALFAELADYFR) | increased cholesterol efflux |  | 
18 | T-166: variant of peptide T-087 (DAWERFRALFKEAADYFR) | increased cholesterol efflux | reduction of membrane ABCA1 levels | 
19 | T-167: variant of peptide T-087 (DAWERFRALFKELPDYFR) | increased cholesterol efflux | reduction of membrane ABCA1 levels | 
20 | T-168: variant of peptide T-087 (DAWERFRALFKELGDYFR) | increased cholesterol efflux |  | 
21 | T-170: variant of peptide T-087 (DAWERFRALFKELADAFR) | increased cholesterol efflux | reduction of membrane ABCA1 levels | 
22 | T-171: variant of peptide T-087 (DAWERFRALFKELADYAR) | increased cholesterol efflux |  | 
23 | T-174: variant of peptide T-087 (DAWAAARALFKELADYFR) | increased cholesterol efflux |  | 
24 | T-175: variant of peptide T-087 (DAWERFAAAFKELADYFR) | increased cholesterol efflux |  | 
25 | T-176: variant of peptide T-087 (DAWERFRALAAALADYFR) | increased cholesterol efflux |  | 
26 | T-178: variant of peptide T-087 (DAWERFRALFKELADAAA) | increased cholesterol efflux |  | 
27 | WKDFGERVERALREQFEDLGQSTEELRVRLASHLRKLRKRLLRDADDLQKRLAVYQA [T-113] |  |  | pKd (LDLR): > 5.00
